From US20100197635A1, “TREATMENT OF TARDIVE DYSKINESIA WITH PYRIDOXAL 5'-PHOSPHATE” (Medicure International Inc., priority 2007, published 2010)
Like-named read-outs stand apart in the source and are kept apart here. Values belong to the molecule of their own block, whether it stands above or below them.

Tests used:
[1] = Phase I single ascending dose study, safety and tolerance of P5P enteric-coated tablet; assay type: in vivo, healthy subjects
Protocol: (§1) A Phase I, single center, single-dose, open-label, sequential ascending dose study to evaluate the safety and tolerance of pyridoxal-5′-phosphate, in an enteric-coated tablet, following a single dose of 250 mg, 750 mg, 1000 mg, and 4000 mg in healthy subjects under fasting conditions was conducted.
(§2) A total of 32 healthy, adult subjects signed the study-specific Informed Consent Form and were confined in the clinical study unit; of these subjects, 24 (6 subjects in each dose level; 3 males and 3 females) were dosed and were enrolled in the study; all of these enrolled subjects completed the study. Subjects were confined to the SFBC Anapharm Clinical Research Facility from at least 12 hours prior to drug administration until after the 24.0-hour post-dose blood draw.
Subjects enrolled in this study were members of the community at large. […] All participating subjects were judged eligible for the study when assessed against the inclusion and exclusion criteria. […]

[2] = Phase I single ascending dose study, pharmacokinetics of P5P enteric-coated tablet; assay type: in vivo, healthy subjects; settings: both sexes, human, fasting; for Cmax / Tmax / half-life: plasma, baseline-corrected; for AUC(0-t): baseline-corrected plasma P5P
Protocol: as §1, §2
Subjects were administered a single oral dose of study medication, as a 1×250 mg (Cohort 1), 3×250 mg (Cohort 2; total dose of 750 mg), 4×250 mg (Cohort 3; total dose of 1000 mg), or 16×250 mg (Cohort 4; total dose of 4000 mg) enteric-coated tablets.
After a supervised overnight fast of at least 10 hours, subjects were administered the medication as a single oral dose of 1, 3, 4, or 16 enteric-coated tablets containing 250 mg of P5P (total dose of 250mg, 750 mg, 1000 mg, or 4000 mg), with 300 mL of water. Subjects were dosed as specified in the protocol, and subsequently fasted for at least 4 hours.
The pharmacokinetic parameters to determine bioavailability for this study were: area under the concentration-time curve from time zero to time of last non-zero concentration (AUC0-t), maximum observed concentration (Cmax), time of observed Cmax (Tmax) and elimination half-life (equivalent to t1/2).

[3] = test system: Tardive Dyskinesia; test: Double blind, placebo controlled crossover study of P5P in tardive dyskinesia (Extrapyramidal Symptom Rating Scale); assay type: in vivo, patients
Protocol: A double blind, placebo controlled crossover study is conducted among patients with TD induced by the use of a neuroleptic medication. Patients are divided into 5 groups: control, Vitamin B6 treatment (400 mg), low dose of P5P (100 mg), medium dose of P5P (250 mg), and high dose of P5P (750 mg). All dosages are administered orally. Treatments are given daily.

[4] = test system: P2 purinoceptors; settings: cited from earlier work
[5] = test system: Tardive Dyskinesia; settings: 100-400 mg vitamin B6 per day, TD induced by schizophrenia medication; cited from earlier work
[6] = unlikely to pose risks of adverse health effects in healthy people; cited from earlier work

Cmax ([2]; single oral dose 250 mg): 300 ± 200 ng/mL
Tmax ([2]; single oral dose 250 mg): 3.2 ± 1.3 h
half-life ([2]; single oral dose 250 mg): 53.8 ± 41.9 h
Cmax ([2]; single oral dose 750 mg): 3900 ± 5400 ng/mL
Tmax ([2]; single oral dose 750 mg): 2.8 ± 0.9 h
half-life ([2]; single oral dose 750 mg): 27.9 ± 19.5 h
Cmax ([2]; single oral dose 1000 mg): 1500 ± 2300 ng/mL
Tmax ([2]; single oral dose 1000 mg): 2.9 ± 1.4 h
half-life ([2]; single oral dose 1000 mg): 36.2 ± 30.6 h
Cmax ([2]; single oral dose 4000 mg): 1700 ± 2700 ng/mL
Tmax ([2]; single oral dose 4000 mg): 4.7 ± 3.5 h
half-life ([2]; single oral dose 4000 mg): 16.5 ± 16.5 h
AUC(0-t) ([2]; single oral dose 250 mg): 2600 ± 1300 ng·h/mL
AUC(0-t) ([2]; single oral dose 750 mg): 12800 ± 15400 ng·h/mL
AUC(0-t) ([2]; single oral dose 1000 mg): 5900 ± 7700 ng·h/mL
AUC(0-t) ([2]; single oral dose 4000 mg): 6900 ± 7400 ng·h/mL
Structure (SMILES): Cc1ncc(COP(=O)(O)O)c(C=O)c1O [P5P, 3-hydroxy-2-methyl-5-[(phosphonooxy)methyl]-4-pyridine-carboxaldehyde]
tolerability ([1]; dosages up to 4000 mg): well tolerated
side effects or evidence of toxicity ([1]; single oral doses 250, 750, 1000, 4000 mg): none of the patients presented any significant side effects or evidence of toxicity
Extrapyramidal Symptom Rating Scale scores, medium or high dose compared to low dose group ([3]; P5P 250 mg or 750 mg vs 100 mg, orally daily): significantly improved scores
Extrapyramidal Symptom Rating Scale scores, medium dose compared to high dose ([3]; P5P 250 mg vs 750 mg, orally daily): do not exhibit significantly different scores
scores on the subscales of the Extrapyramidal Symptom Rating Scale (parkinsonism and dyskinetic movement scales) ([3]; P5P 100, 250 or 750 mg orally daily, compared to control or vitamin B6 (400 mg) groups): improved scores
ATP induced calcium ion influx into cells [4]: inhibits

Structure (SMILES): Cc1ncc(CO)c(CO)c1O [vitamin B6, pyridoxine]
scores on the subscales of the Extrapyramidal Symptom Rating Scale (parkinsonism and dyskinetic movement scales) [5]: improved scores
Tolerable Upper Intake Level [6]: 100 mg
